Our source for the IC50 values is ChEMBL document CHEMBL1909046, “DrugMatrix in vitro pharmacology data”.

One assay deals with T1, C-X-C chemokine receptor type 1 (Homo sapiens, UniProt P25024).
T1 sequence (P25024 whole entry): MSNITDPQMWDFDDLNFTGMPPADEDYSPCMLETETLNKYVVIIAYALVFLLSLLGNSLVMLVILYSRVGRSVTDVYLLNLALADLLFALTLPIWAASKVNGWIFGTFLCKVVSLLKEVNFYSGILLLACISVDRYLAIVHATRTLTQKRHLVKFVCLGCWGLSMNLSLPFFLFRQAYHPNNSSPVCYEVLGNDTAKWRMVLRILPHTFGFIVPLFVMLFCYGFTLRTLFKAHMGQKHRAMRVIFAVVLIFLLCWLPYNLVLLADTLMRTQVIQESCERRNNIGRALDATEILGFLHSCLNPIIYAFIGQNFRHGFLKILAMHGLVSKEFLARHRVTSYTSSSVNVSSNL
Experiment: not given
Conditions: not given
In the case of `COc1ccccc1C(=O)N1CCC(Cc2ccccc2)CC1`, the IC50 result is recorded as “Not Active”.
As to `O=C1CC[C@H](N2C(=O)c3ccccc3C2=O)C(=O)N1`, the IC50 entry is on record as “Not Active”.
The same measure, in the same setting: for `N=C(Nc1ccccc1)Nc1ccccc1` the value was “Not Active”.
For `Nc1c(CC(=O)O)cccc1C(=O)c1ccc(Br)cc1` [BROMFENAC], the IC50 result is “Not Active”.
On to `O=C(O)Cc1ccccc1Nc1c(Cl)cccc1Cl` [DICLOFENAC], for which the IC50 entry is reported as “Not Active”.

For the next assay, the target named is T2, Alpha-1B adrenergic receptor (Rattus norvegicus, UniProt P15823).
T2 sequence (P15823 whole entry): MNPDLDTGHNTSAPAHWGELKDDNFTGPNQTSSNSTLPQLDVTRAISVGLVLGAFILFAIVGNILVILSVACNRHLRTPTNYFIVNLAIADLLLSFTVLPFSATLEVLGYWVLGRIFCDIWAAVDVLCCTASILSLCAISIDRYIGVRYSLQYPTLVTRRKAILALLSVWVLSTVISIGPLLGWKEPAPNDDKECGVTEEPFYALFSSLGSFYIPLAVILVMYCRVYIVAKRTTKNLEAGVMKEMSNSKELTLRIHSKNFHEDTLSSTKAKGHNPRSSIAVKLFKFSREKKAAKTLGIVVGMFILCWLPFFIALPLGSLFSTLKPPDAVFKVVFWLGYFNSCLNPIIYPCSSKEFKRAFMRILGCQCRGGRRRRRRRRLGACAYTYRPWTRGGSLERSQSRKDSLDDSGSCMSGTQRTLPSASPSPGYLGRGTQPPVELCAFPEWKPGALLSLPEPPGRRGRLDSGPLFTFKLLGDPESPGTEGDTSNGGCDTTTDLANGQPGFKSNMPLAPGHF
The assay can be described thus: DRUGMATRIX: Alpha-1B adrenergic receptor radioligand binding (ligand: prazosin). The conditions noted are these: Not Active = under 50% inhibition at 10 µM. The format is cell membranes, Wistar, Liver, Membrane.
Turning to `COc1ccccc1C(=O)N1CCC(Cc2ccccc2)CC1`, the IC50 result is given as “Not Active”.
Still for that read-out and setting: for `O=C1CC[C@H](N2C(=O)c3ccccc3C2=O)C(=O)N1` the value was “Not Active”.
As for `N=C(Nc1ccccc1)Nc1ccccc1`, the IC50 entry is listed as “Not Active”.
On the same count and under the same terms, for `Nc1c(CC(=O)O)cccc1C(=O)c1ccc(Br)cc1` [BROMFENAC] the value was “Not Active”; for `O=C(O)Cc1ccccc1Nc1c(Cl)cccc1Cl` [DICLOFENAC], “Not Active”.

The target of a further assay is T3, Interstitial collagenase (Homo sapiens, UniProt P03956).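 Note: MMP-1 enzyme inhibition assay using a peptide substrate; in other assays of this panel Not Active means under 50% inhibition at 10 µM.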
T3 sequence (P03956 whole entry): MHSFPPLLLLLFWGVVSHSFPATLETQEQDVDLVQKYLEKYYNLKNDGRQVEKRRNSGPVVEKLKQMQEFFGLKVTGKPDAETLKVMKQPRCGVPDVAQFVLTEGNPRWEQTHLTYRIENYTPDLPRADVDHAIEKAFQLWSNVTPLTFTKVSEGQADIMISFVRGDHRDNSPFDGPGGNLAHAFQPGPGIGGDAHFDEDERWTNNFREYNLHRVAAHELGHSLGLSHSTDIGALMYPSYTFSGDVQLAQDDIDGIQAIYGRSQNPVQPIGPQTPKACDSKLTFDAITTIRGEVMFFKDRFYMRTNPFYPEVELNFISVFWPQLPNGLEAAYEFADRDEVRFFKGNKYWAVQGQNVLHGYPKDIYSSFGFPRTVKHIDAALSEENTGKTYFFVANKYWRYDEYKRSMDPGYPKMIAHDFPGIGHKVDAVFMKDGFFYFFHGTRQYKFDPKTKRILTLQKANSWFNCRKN
Nature of the assay: biochemical. The format is tissue-based, Rheumatoid synovial fibroblasts.
Conditions: not given
Regarding `COc1ccccc1C(=O)N1CCC(Cc2ccccc2)CC1`, the IC50 result is “Not Active”.
In the case of `O=C1CC[C@H](N2C(=O)c3ccccc3C2=O)C(=O)N1`, the IC50 entry is listed as “Not Active”.
On the same count and under the same terms, for `N=C(Nc1ccccc1)Nc1ccccc1` the value was “Not Active”; for `Nc1c(CC(=O)O)cccc1C(=O)c1ccc(Br)cc1` [BROMFENAC], “Not Active”.
For the compound `O=C(O)Cc1ccccc1Nc1c(Cl)cccc1Cl` [DICLOFENAC], the IC50 result was “Not Active”.

The target in another assay is Prostaglandin G/H synthase 1 (Homo sapiens, UniProt P23219). Nature of the assay: biochemical. The format is tissue-based, Platelet. The conditions noted are these: platelet.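 Note: inhibition of COX-1 enzyme activity, with arachidonic acid supplied as substrate; in other assays of this panel Not Active means under 50% inhibition at 10 µM.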
Chain of Prostaglandin G/H synthase 1 (P23219 whole entry): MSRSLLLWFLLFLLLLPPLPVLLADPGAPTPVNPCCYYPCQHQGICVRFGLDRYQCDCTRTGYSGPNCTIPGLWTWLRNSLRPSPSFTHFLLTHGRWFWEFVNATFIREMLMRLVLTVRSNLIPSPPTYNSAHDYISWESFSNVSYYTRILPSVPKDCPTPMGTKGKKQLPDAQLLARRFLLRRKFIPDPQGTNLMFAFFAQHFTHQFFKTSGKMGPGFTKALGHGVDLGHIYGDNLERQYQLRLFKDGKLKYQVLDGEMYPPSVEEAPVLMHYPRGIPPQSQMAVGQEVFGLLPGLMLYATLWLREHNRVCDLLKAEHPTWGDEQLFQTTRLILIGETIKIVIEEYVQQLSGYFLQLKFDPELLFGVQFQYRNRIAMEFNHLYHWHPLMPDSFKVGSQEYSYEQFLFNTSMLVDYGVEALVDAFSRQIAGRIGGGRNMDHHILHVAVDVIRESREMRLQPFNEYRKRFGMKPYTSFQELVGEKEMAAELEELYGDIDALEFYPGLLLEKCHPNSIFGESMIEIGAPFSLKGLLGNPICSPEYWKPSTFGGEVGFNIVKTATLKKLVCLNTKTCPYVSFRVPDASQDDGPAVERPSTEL
Take `COc1ccccc1C(=O)N1CCC(Cc2ccccc2)CC1`: the IC50 entry is listed as “Not Active”.
On the same count and under the same terms, for `O=C1CC[C@H](N2C(=O)c3ccccc3C2=O)C(=O)N1` the value was “Not Active”; for `N=C(Nc1ccccc1)Nc1ccccc1`, “Not Active”.

Another assay concerns the target T4, Neutrophil elastase (Homo sapiens, UniProt P08246).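 Note: inhibition of neutrophil elastase enzyme activity, measured with a p-nitroanilide-linked peptide substrate; in other assays of this panel Not Active means under 50% inhibition at 10 µM.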
T4 sequence (P08246 whole entry): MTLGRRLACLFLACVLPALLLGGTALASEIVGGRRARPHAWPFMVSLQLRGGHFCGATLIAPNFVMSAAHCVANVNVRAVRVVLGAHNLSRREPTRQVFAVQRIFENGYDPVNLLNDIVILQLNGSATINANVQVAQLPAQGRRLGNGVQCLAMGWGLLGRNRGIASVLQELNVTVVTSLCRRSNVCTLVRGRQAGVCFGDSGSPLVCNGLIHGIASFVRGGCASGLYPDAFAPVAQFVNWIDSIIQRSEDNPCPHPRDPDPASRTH
Experiment: not given
The format is tissue-based.
Conditions: not given
For `COc1ccccc1C(=O)N1CCC(Cc2ccccc2)CC1`, the IC50 entry was “Not Active”.
`O=C1CC[C@H](N2C(=O)c3ccccc3C2=O)C(=O)N1`: the IC50 result is recorded as “Not Active”.
On to `N=C(Nc1ccccc1)Nc1ccccc1`, for which the IC50 result is “Not Active”.
On the same count and under the same terms, for `Nc1c(CC(=O)O)cccc1C(=O)c1ccc(Br)cc1` [BROMFENAC] the value was “Not Active”; for `O=C(O)Cc1ccccc1Nc1c(Cl)cccc1Cl` [DICLOFENAC], “Not Active”.

The next assay concerns the target T5, Leukotriene C4 synthase (Cavia porcellus, UniProt A6XA80).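 Note: enzyme inhibition assay of leukotriene C4 synthase, using LTA4 as the substrate; in other assays of this panel Not Active means under 50% inhibition at 10 µM.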
T5 sequence (A6XA80 whole entry): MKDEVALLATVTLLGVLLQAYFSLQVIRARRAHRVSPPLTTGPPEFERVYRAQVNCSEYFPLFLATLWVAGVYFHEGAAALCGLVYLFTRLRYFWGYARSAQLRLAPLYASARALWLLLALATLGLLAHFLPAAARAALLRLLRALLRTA
Experiment: not given
The assay is classed as tissue-based, Lung.
Conditions: not given
For the compound `COc1ccccc1C(=O)N1CCC(Cc2ccccc2)CC1`, the IC50 result is recorded as “Not Active”.
As for `O=C1CC[C@H](N2C(=O)c3ccccc3C2=O)C(=O)N1`, the IC50 result is “Not Active”.
For `N=C(Nc1ccccc1)Nc1ccccc1`, the IC50 result was “Not Active”.
On to `Nc1c(CC(=O)O)cccc1C(=O)c1ccc(Br)cc1` [BROMFENAC], for which the IC50 entry is recorded as “Not Active”.
Still for that read-out and setting: for `O=C(O)Cc1ccccc1Nc1c(Cl)cccc1Cl` [DICLOFENAC] the value was “Not Active”.

Another assay addresses T6, Thromboxane-A synthase (Homo sapiens, UniProt P24557).
T6 sequence (P24557 whole entry): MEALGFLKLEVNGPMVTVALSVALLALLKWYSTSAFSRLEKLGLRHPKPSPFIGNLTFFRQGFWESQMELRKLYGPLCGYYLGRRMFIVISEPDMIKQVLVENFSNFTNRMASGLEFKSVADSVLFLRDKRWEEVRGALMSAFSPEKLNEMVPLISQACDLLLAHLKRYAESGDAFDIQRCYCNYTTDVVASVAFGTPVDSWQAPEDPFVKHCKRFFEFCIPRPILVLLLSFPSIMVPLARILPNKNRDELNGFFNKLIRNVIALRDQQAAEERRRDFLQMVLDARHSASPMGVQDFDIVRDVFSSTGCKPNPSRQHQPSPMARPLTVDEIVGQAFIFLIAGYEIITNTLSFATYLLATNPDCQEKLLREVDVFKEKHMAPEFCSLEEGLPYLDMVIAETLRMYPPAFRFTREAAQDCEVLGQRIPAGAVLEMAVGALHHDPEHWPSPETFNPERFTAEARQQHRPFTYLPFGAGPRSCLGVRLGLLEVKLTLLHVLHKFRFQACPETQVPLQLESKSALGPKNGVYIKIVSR
The assay can be described thus: biochemical. The conditions noted are these: platelet. The format is tissue-based, Platelet.
As for `COc1ccccc1C(=O)N1CCC(Cc2ccccc2)CC1`, the IC50 result was “Not Active”.
Consider `O=C1CC[C@H](N2C(=O)c3ccccc3C2=O)C(=O)N1`, for which the IC50 entry is recorded as “Not Active”.
Regarding `N=C(Nc1ccccc1)Nc1ccccc1`, the IC50 entry is reported as “Not Active”.
As for `Nc1c(CC(=O)O)cccc1C(=O)c1ccc(Br)cc1` [BROMFENAC], the IC50 result was “Not Active”.
As for `O=C(O)Cc1ccccc1Nc1c(Cl)cccc1Cl` [DICLOFENAC], the IC50 result is “Not Active”.

For another assay, the target named is T7, Cathepsin G (Homo sapiens, UniProt P08311).
T7 sequence (P08311 whole entry): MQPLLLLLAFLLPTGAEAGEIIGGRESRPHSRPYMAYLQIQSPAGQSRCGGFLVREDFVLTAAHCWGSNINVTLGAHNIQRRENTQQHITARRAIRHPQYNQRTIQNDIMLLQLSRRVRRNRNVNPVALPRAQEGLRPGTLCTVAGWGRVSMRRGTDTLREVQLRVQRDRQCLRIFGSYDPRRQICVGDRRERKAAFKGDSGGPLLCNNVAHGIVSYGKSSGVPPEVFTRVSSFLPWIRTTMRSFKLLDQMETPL
Experiment: not given
The assay is classed as tissue-based. The conditions noted are these: neutrophil.
In the case of `COc1ccccc1C(=O)N1CCC(Cc2ccccc2)CC1`, the IC50 result is “Not Active”.
As to `O=C1CC[C@H](N2C(=O)c3ccccc3C2=O)C(=O)N1`, the IC50 result is “Not Active”.
Regarding `N=C(Nc1ccccc1)Nc1ccccc1`, the IC50 entry is given as “Not Active”.
In the case of `Nc1c(CC(=O)O)cccc1C(=O)c1ccc(Br)cc1` [BROMFENAC], the IC50 result is “Not Active”.
As for `O=C(O)Cc1ccccc1Nc1c(Cl)cccc1Cl` [DICLOFENAC], the IC50 entry was “Not Active”.

Another assay deals with Glycine receptor (Rattus norvegicus, UniProt P22771+P24524+P07727+P20781).
Experiment: not given
Conditions: not given
The assay is classed as cell membranes, Wistar, Spinal cord, Membrane.
On to `COc1ccccc1C(=O)N1CCC(Cc2ccccc2)CC1`, for which the IC50 entry was “Not Active”.
For `O=C1CC[C@H](N2C(=O)c3ccccc3C2=O)C(=O)N1`, the IC50 entry is “Not Active”.
On to `N=C(Nc1ccccc1)Nc1ccccc1`, for which the IC50 result is reported as “Not Active”.
As to `Nc1c(CC(=O)O)cccc1C(=O)c1ccc(Br)cc1` [BROMFENAC], the IC50 result is reported as “Not Active”.
For `O=C(O)Cc1ccccc1Nc1c(Cl)cccc1Cl` [DICLOFENAC], the IC50 entry is given as “Not Active”.
